Results taken from BindingDB's records for doi:10.7270/Q29G5K8R (Burnham Center For Chemical Genomics, 2010).
pEC50: −log10 of the molar value.

Target: Intestinal-type alkaline phosphatase (Homo sapiens, UniProt P09923)
Assay: activation of human intestinal alkaline phosphatase – biochemical, dose response (AID 488873)

Sequence of Intestinal-type alkaline phosphatase (P09923 whole entry): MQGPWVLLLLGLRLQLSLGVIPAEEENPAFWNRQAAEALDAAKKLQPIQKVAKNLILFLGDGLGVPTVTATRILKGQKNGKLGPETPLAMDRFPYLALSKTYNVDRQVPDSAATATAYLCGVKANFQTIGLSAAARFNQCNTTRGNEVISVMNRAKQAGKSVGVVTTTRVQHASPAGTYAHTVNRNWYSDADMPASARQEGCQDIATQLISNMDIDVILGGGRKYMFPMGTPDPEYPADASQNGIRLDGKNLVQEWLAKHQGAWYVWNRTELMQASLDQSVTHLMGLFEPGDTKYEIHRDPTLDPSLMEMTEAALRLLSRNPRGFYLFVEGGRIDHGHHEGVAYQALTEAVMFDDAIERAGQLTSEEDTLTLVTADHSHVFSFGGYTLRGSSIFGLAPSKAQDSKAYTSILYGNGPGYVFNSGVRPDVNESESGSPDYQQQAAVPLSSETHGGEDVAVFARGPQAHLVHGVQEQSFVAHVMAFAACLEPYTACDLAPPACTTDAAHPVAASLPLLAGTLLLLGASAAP

| pEC50 | Compound |
| --- | --- |
| 4.58 | CN(CCO)c1ccc(CN=Nc2ccc([N+](=O)[O-])cc2S(=O)(=O)Nc2ccccc2C(=O)O)cc1 |
| 4.18 | O=C(NN=CC1=CC(=O)C(=O)CC1)NN=CC1=CC(=O)C(=O)CC1 [1,3-bis[[(Z)-(3-hydroxy-4-oxocyclohexa-2,5-dien-1-ylidene)methyl]amino]urea] |
| < 4.00 | O=C1CC(=O)c2c(O)cc(O)c(O)c2C1=O [4,5,7,8-tetrahydroxy-1,2-naphthoquinone] |
| < 4.00 | Oc1ccc(CN=Nc2cc(N3CCCC3)nc(N3CCCC3)n2)cc1O [(4Z)-4-[[2-(2,6-dipyrrolidin-1-ylpyrimidin-4-yl)hydrazinyl]methylidene]-2-hydroxycyclohexa-2,5-dien-1-one] |
| < 4.00 | C#CCOCCOCCOCCNc1nc(N2CCN(C(=O)CCCCCCCCCCNC(=O)[C@@H](CCC(=O)O)n3cc(CCCCCN)nn3)CC2)nc(N2CCN(C(=O)CCCCCCCCCCNC(=O)[C@H]([C@@H](C)CC)n3cc(CCCCCN)nn3)CC2)n1 [KI-KE] |
| 4.18 | Cc1cc(=O)[nH]c(N=NCc2ccc(O)c(O)c2)n1 [MLS001194906] |
